Measured values published in patent publication US11926826B2, “Twist signaling inhibitor compositions and methods of using the same” (City of Hope, priority 2016, dated 2024).

How the values were obtained:
TWIST = TWIST knockdown after MSN delivery of siRNA in ovarian cancer cell lines; format: cell-based; conditions: A2780R and Ovcar8; loaded onto MSNs
Procedure: MSN design and delivery. Mesoporous silica nanoparticles (MSNs) were synthesized utilizing the sol-gel method as described previously. First, 250 mg 95% cetyltrimethylammonium bromide (CTAB) was dissolved in 120 ml of water with 875 μl 2M sodium hydroxide solution, at 80° C. Next, 1.2 ml of 98% tetraethylorthosilicate was added. After 15 min, 300 μl of 42% 3-(trihydroxysilyl) propyl methylphosphonate was added, and the mixture was stirred 2 hr. Particles were collected using centrifugation and washed with methanol. Acidic methanol was then used to remove any remaining CTAB surfactants. Zeta potential at 50 μg/mL was 43.75 mV [14]. All chemicals were obtained from Aldrich (St. Louis, MO). Particles were ˜120 nm in diameter, with 2.5 nm pores. Low molecular weight (1.8 kD branched polymer) polyethyleneimine (PEI) was electrostatically attached to the particle surface to provide a positive change to attract negatively charged siRNA [21]. To complex siRNA for in vitro experiments, 10 μl siRNA at 10 μM was mixed with 70 ul MSNs at 500 μg/ml and 20 μl water, and the mixture was incubated overnight at 4° C. on a roller. The following day, 100 μl of the MSN-siRNA complexes was added to each well of a 6-well plate containing 1900 μl normal medium.
Western Blotting. Following siRNA treatment, cells were pelleted and lysed in RIPA buffer. Protein concentration was determined by BCA assay (Thermo Fisher). Following SDS-PAGE, protein was transferred to Amersham PVDF membrane (Genesee Scientific) using a BioRad Trans-Blot SD semi-dry transfer unit. Blots were then blocked in milk for one hour at room temperature or overnight at 4° C. Incubation with primary antibody took place for one hour at room temperature or overnight at 4° C. Antibodies were diluted in 5% milk, with 0.1-0.2% Tween-20. Antibodies used were TWIST 2c1a (Santa Cruz Biotechnology, Dallas, TX) at 1:250-1:500 dilution, β-Actin, A1978 (Sigma Aldrich, St. Louis, MO) at 1:2500-1:5000 dilution; and Horseradish Peroxidase (HRP) conjugated anti-mouse secondary antibodies. […]

TWIST1 = TWIST1 knockdown after Lipofectamine 2000 transfection in SUM 1315; format: cell-based, human
Procedure: Cell Culture, Transfection, and Stable Cell Line Production. SUM 1315 breast cancer cells were obtained from ATCC (Manassas, VA). Cells were maintained at 37° C., 5% CO2, and 90% humidity in a tissue culture incubator. Media for SUM 1315 cells consisted of a 50-50 mixture of DMEM and F12 media, supplemented with 5 μg/ml insulin, 10 ng/ml EGF, 5% fetal bovine serum, and 1% penicillin/streptomycin. Cells were passaged using 0.25% trypsin (Genesee Scientific, San Diego, CA) every 2-3 days as they reached confluency. […]
Quantitative PCR. […] RNA quantity and quality was measured and analyzed (with 260/280 nm and 260/230 nm spectra measurements) using a NanoDrop ND-1000 (Thermo Fisher Scientific, Waltham, MA). […] Quantitative RT-PCR was performed in quadruplicate using Maxima SYBR Green Master Mix (Thermo Fisher Scientific, Waltham, MA) in 25 μl reactions. […] Data were analyzed using Bio-Rad iQ5 software using the 2^−ΔΔ^Ct method and normalized to Actin. […]
Western Blot. […] Cells were pelleted, lysed in RIPA buffer, and protein concentration was determined using the BCA Assay (Thermo Fisher Scientific, Waltham, MA). […]

si419: anti-TWIST siRNA; passenger 5′-GGACAAGCUGAGCAAGAUU-3′ (SEQ ID No: 1), guide 5′-AAUCUUGCUCAGCUUGUCCUU-3′ (SEQ ID No: 2) (listed as RNA, chemistry not fully specified)
TWIST knockdown (TWIST): robust TWIST knockdown lasting one week post transfection
TWIST1 knockdown (protein and mRNA) (TWIST1): knockdown of TWIST1
